Experimental data taken from ChEMBL document CHEMBL5608163, “Structure modification of anoplin for fighting resistant bacteria” (Eur J Med Chem, 2024).
In brackets after ≈: the same amount, converted by molar mass. Bridge positions count the residues as written; N and C are the ends. Square brackets hold non-standard residues; d marks the D form. Peptide text beside a SMILES is read from it. I, II: the chains in the order shown. * marks the point of attachment. ξ: configuration not given here. Pentadecanoyl = CCCCCCCCCCCCCCC(=O)*; Lauroyl = CCCCCCCCCCCC(=O)*; Decanoyl = CCCCCCCCCC(=O)*; Nonanoyl = CCCCCCCCC(=O)*; Octanoyl = CCCCCCCC(=O)*; Hexanoyl = CCCCCC(=O)*; ξK = NCCCCC(N)C(=O)O; Butyryl = CCCC(=O)*

What was measured:
Staphylococcus aureus [1] = assay: Antibacterial activity against Staphylococcus aureus ATCC 25923 assessed as reduction in bacterial cell growth incubated for 16 to 24 hrs by CLSI-protocol based Mueller-Hinton Broth micro-dilution method; assay type: functional; settings: time 16-24 hrs
Escherichia coli [2] = assay: Antibacterial activity against Escherichia coli ATCC 25922 assessed as reduction in bacterial cell growth incubated for 16 to 24 hrs by CLSI-protocol based Mueller-Hinton Broth micro-dilution method; assay type: functional; settings: time 16-24 hrs
Erythrocyte = assay: Hemolytic activity in human erythrocyte incubated for 70 mins by absorbance based assay; assay type: toxicity, cell-based; settings: 1.167 h
Bacillus subtilis [3] = assay: Antibacterial activity against Bacillus subtilis ATCC 23857 assessed as reduction in bacterial cell growth incubated for 16 to 24 hrs by CLSI-protocol based Mueller-Hinton Broth micro-dilution method; assay type: functional; settings: time 16-24 hrs
Klebsiella pneumoniae [4] = assay: Antibacterial activity against Klebsiella pneumoniae ATCC 700603 assessed as reduction in bacterial cell growth incubated for 16 to 24 hrs by CLSI-protocol based Mueller-Hinton Broth micro-dilution method; assay type: functional; settings: time 16-24 hrs
Pseudomonas aeruginosa [5] = assay: Antibacterial activity against Pseudomonas aeruginosa ATCC 27853 assessed as reduction in bacterial cell growth incubated for 16 to 24 hrs by CLSI-protocol based Mueller-Hinton Broth micro-dilution method; assay type: functional; settings: time 16-24 hrs
Klebsiella pneumoniae [6] = assay: Antibacterial activity against Klebsiella pneumoniae ATCC 700603 assessed as reduction in bacterial cell growth measured for 18 hrs by Mueller-Hinton broth based two-fold serial dilution method; assay type: functional
Bacillus subtilis [7] = assay: Antibacterial activity against Bacillus subtilis ATCC 23857 assessed as reduction in bacterial cell growth measured for 18 hrs by Mueller-Hinton broth based two-fold serial dilution method; assay type: functional
Pseudomonas aeruginosa [8] = assay: Antibacterial activity against Pseudomonas aeruginosa ATCC 27853 assessed as reduction in bacterial cell growth measured for 18 hrs by Mueller-Hinton broth based two-fold serial dilution method; assay type: functional
Staphylococcus aureus [9] = assay: Antibacterial activity against Staphylococcus aureus ATCC 25923 assessed as reduction in bacterial cell growth measured for 18 hrs by Mueller-Hinton broth based two-fold serial dilution method; assay type: functional
Escherichia coli [10] = assay: Antibacterial activity against Escherichia coli ATCC 25922 assessed as reduction in bacterial cell growth measured for 18 hrs by Mueller-Hinton broth based two-fold serial dilution method; assay type: functional

Compound	MIC (Staphylococcus aureus [1]) [µM]	MIC (Escherichia coli [2]) [µM]	HC10 (Erythrocyte) [µM]	MIC (Bacillus subtilis [3]) [µM]	MIC (Klebsiella pneumoniae [4]) [µM]	MIC (Pseudomonas aeruginosa [5]) [µM]	MIC (Klebsiella pneumoniae [6]) [µM]	MIC (Bacillus subtilis [7]) [µM]	MIC (Pseudomonas aeruginosa [8]) [µM]	MIC (Staphylococcus aureus [9]) [µM]	MIC (Escherichia coli [10]) [µM]
CC[C@H](C)[C@H](NC(=O)[C@H](CCCNC(=N)N)NC(=O)[C@H](CCCCN)NC(=O)[C@H](CC(C)C)NC(=O)[C@H](CC(C)C)NC(=O)CN)C(=O)N[C@@H](CCCCN)C(=O)N[C@H](C(=O)N[C@@H](CC(C)C)C(=O)N[C@@H](CC(C)C)C(=O)NCCCCC(NC(=O)[C@H](CC(C)C)NC(=O)[C@H](CC(C)C)NC(=O)[C@@H](NC(=O)[C@H](CCCCN)NC(=O)[C@@H](NC(=O)[C@H](CCCNC(=N)N)NC(=O)[C@H](CCCCN)NC(=O)[C@H](CC(C)C)NC(=O)[C@H](CC(C)C)NC(=O)CN)[C@@H](C)CC)[C@@H](C)O)C(N)=O)[C@@H](C)O (some centres not stated) (I: H-GLLKRIKTLL[ξK]-NH2 / II: H-GLLKRIKTLL; amide I:11-II:C)	16 (≈ 38.7 µg/mL)	8 (≈ 19.3 µg/mL)	51.2	4 (≈ 9.67 µg/mL)	8 (≈ 19.3 µg/mL)	8 (≈ 19.3 µg/mL)					
CCCCCC(=O)NCC(=O)N[C@@H](CC(C)C)C(=O)N[C@@H](CC(C)C)C(=O)N[C@@H](CCCCN)C(=O)N[C@@H](CCCNC(=N)N)C(=O)N[C@H](C(=O)N[C@@H](CCCCN)C(=O)N[C@H](C(=O)N[C@@H](CC(C)C)C(=O)N[C@@H](CC(C)C)C(=O)NCCCCC(NC(=O)[C@H](CC(C)C)NC(=O)[C@H](CC(C)C)NC(=O)[C@@H](NC(=O)[C@H](CCCCN)NC(=O)[C@@H](NC(=O)[C@H](CCCNC(=N)N)NC(=O)[C@H](CCCCN)NC(=O)[C@H](CC(C)C)NC(=O)[C@H](CC(C)C)NC(=O)CNC(=O)CCCCC)[C@@H](C)CC)[C@@H](C)O)C(N)=O)[C@@H](C)O)[C@@H](C)CC (some centres not stated) (I: Hexanoyl-GLLKRIKTLL[ξK]-NH2 / II: Hexanoyl-GLLKRIKTLL; amide I:11-II:C)	8 (≈ 20.9 µg/mL)	4 (≈ 10.5 µg/mL)	6.08	8 (≈ 20.9 µg/mL)	8 (≈ 20.9 µg/mL)	16 (≈ 41.8 µg/mL)					
CCCCCCCCCCCC(=O)NCC(=O)N[C@@H](CC(C)C)C(=O)N[C@@H](CC(C)C)C(=O)N[C@@H](CCCCN)C(=O)N[C@@H](CCCNC(=N)N)C(=O)N[C@H](C(=O)N[C@@H](CCCCN)C(=O)N[C@H](C(=O)N[C@@H](CC(C)C)C(=O)N[C@@H](CC(C)C)C(=O)NCCCCC(NC(=O)[C@H](CC(C)C)NC(=O)[C@H](CC(C)C)NC(=O)[C@@H](NC(=O)[C@H](CCCCN)NC(=O)[C@@H](NC(=O)[C@H](CCCNC(=N)N)NC(=O)[C@H](CCCCN)NC(=O)[C@H](CC(C)C)NC(=O)[C@H](CC(C)C)NC(=O)CNC(=O)CCCCCCCCCCC)[C@@H](C)CC)[C@@H](C)O)C(N)=O)[C@@H](C)O)[C@@H](C)CC (some centres not stated) (I: Lauroyl-GLLKRIKTLL[ξK]-NH2 / II: Lauroyl-GLLKRIKTLL; amide I:11-II:C)	256 (≈ 712 µg/mL)	128 (≈ 356 µg/mL)	15.16	256 (≈ 712 µg/mL)	256 (≈ 712 µg/mL)	256 (≈ 712 µg/mL)					
CCCCCCCC(=O)NCC(=O)N[C@@H](CC(C)C)C(=O)N[C@@H](CC(C)C)C(=O)N[C@@H](CCCCN)C(=O)N[C@@H](CCCNC(=N)N)C(=O)N[C@H](C(=O)N[C@@H](CCCCN)C(=O)N[C@H](C(=O)N[C@@H](CC(C)C)C(=O)N[C@@H](CC(C)C)C(=O)NCCCCC(NC(=O)[C@H](CC(C)C)NC(=O)[C@H](CC(C)C)NC(=O)[C@@H](NC(=O)[C@H](CCCCN)NC(=O)[C@@H](NC(=O)[C@H](CCCNC(=N)N)NC(=O)[C@H](CCCCN)NC(=O)[C@H](CC(C)C)NC(=O)[C@H](CC(C)C)NC(=O)CNC(=O)CCCCCCC)[C@@H](C)CC)[C@@H](C)O)C(N)=O)[C@@H](C)O)[C@@H](C)CC (some centres not stated) (I: Octanoyl-GLLKRIKTLL[ξK]-NH2 / II: Octanoyl-GLLKRIKTLL; amide I:11-II:C)	64 (≈ 171 µg/mL)	16 (≈ 42.7 µg/mL)	5.67	32 (≈ 85.5 µg/mL)	32 (≈ 85.5 µg/mL)	128 (≈ 342 µg/mL)					
CCCCCCCCCCCC(=O)NCC(=O)N[C@@H](CC(C)C)C(=O)N[C@@H](CC(C)C)C(=O)N[C@@H](CCCCN)C(=O)N[C@@H](CCCNC(=N)N)C(=O)N[C@H](C(=O)N[C@@H](CCCCN)C(=O)N[C@H](C(=O)N[C@@H](CC(C)C)C(=O)N[C@@H](CC(C)C)C(N)=O)[C@@H](C)O)[C@@H](C)CC (Lauroyl-GLLKRIKTLL-NH2)	16 (≈ 21.4 µg/mL)	64 (≈ 85.5 µg/mL)	11.38	16 (≈ 21.4 µg/mL)	128 (≈ 171 µg/mL)	32 (≈ 42.7 µg/mL)					
CCCCCCCCC(=O)NCC(=O)N[C@@H](CC(C)C)C(=O)N[C@@H](CC(C)C)C(=O)N[C@@H](CCCCN)C(=O)N[C@@H](CCCNC(=N)N)C(=O)N[C@H](C(=O)N[C@@H](CCCCN)C(=O)N[C@H](C(=O)N[C@@H](CC(C)C)C(=O)N[C@@H](CC(C)C)C(N)=O)[C@@H](C)O)[C@@H](C)CC (Nonanoyl-GLLKRIKTLL-NH2)							16 (≈ 20.7 µg/mL)	4 (≈ 5.18 µg/mL)	8 (≈ 10.4 µg/mL)	8 (≈ 10.4 µg/mL)	8 (≈ 10.4 µg/mL)
CCCCCCCC(=O)NCC(=O)N[C@@H](CC(C)C)C(=O)N[C@@H](CC(C)C)C(=O)N[C@@H](CCCCN)C(=O)N[C@@H](CCCNC(=N)N)C(=O)N[C@H](C(=O)N[C@@H](CCCCN)C(=O)N[C@H](C(=O)N[C@@H](CC(C)C)C(=O)N[C@@H](CC(C)C)C(N)=O)[C@@H](C)O)[C@@H](C)CC (Octanoyl-GLLKRIKTLL-NH2)	8 (≈ 10.2 µg/mL)	16 (≈ 20.5 µg/mL)	210.63	8 (≈ 10.2 µg/mL)	16 (≈ 20.5 µg/mL)	8 (≈ 10.2 µg/mL)					
CCCCCCCCCCCCCCC(=O)NCC(=O)N[C@@H](CC(C)C)C(=O)N[C@@H](CC(C)C)C(=O)N[C@@H](CCCCN)C(=O)N[C@@H](CCCNC(=N)N)C(=O)N[C@H](C(=O)N[C@@H](CCCCN)C(=O)N[C@H](C(=O)N[C@@H](CC(C)C)C(=O)N[C@@H](CC(C)C)C(N)=O)[C@@H](C)O)[C@@H](C)CC (Pentadecanoyl-GLLKRIKTLL-NH2)							32 (≈ 44.1 µg/mL)	8 (≈ 11 µg/mL)	16 (≈ 22 µg/mL)	16 (≈ 22 µg/mL)	16 (≈ 22 µg/mL)
I: Butyryl-GLLKRIKTLL[ξK][ξK]-NH2 / II: Butyryl-GLLKRIKTLL[ξK] / III: Butyryl-GLLKRIKTLL / IV: Butyryl-GLLKRIKTLL (amide I:11-IV:C, I:12-II:C, II:11-III:C)	16	8	1.06	16	32	8					
I: Decanoyl-GLLKRIKTLL[ξK][ξK]-NH2 / II: Decanoyl-GLLKRIKTLL[ξK] / III: Decanoyl-GLLKRIKTLL / IV: Decanoyl-GLLKRIKTLL (amide I:11-IV:C, I:12-II:C, II:11-III:C)	256	256	12.51	256	256	256					
I: H-GLLKRIKTLL[ξK][ξK]-NH2 / II: H-GLLKRIKTLL[ξK] / III: H-GLLKRIKTLL / IV: H-GLLKRIKTLL (amide I:11-IV:C, I:12-II:C, II:11-III:C)	8	8	1.31	8	16	8					
I: Hexanoyl-GLLKRIKTLL[ξK][ξK]-NH2 / II: Hexanoyl-GLLKRIKTLL[ξK] / III: Hexanoyl-GLLKRIKTLL / IV: Hexanoyl-GLLKRIKTLL (amide I:11-IV:C, I:12-II:C, II:11-III:C)	32	32	10.91	32	32	32					
I: Lauroyl-GLLKRIKTLL[ξK][ξK]-NH2 / II: Lauroyl-GLLKRIKTLL[ξK] / III: Lauroyl-GLLKRIKTLL / IV: Lauroyl-GLLKRIKTLL (amide I:11-IV:C, I:12-II:C, II:11-III:C)	256	125	210.92	256	256	256					
I: Octanoyl-GLLKRIKTLL[ξK][ξK]-NH2 / II: Octanoyl-GLLKRIKTLL[ξK] / III: Octanoyl-GLLKRIKTLL / IV: Octanoyl-GLLKRIKTLL (amide I:11-IV:C, I:12-II:C, II:11-III:C)	256	256	103.4	256	256	256					
